This passage reports TGI and GI50 results from PubChem BioAssay (NCI).

Assay in all cases: NCI anticancer screen, dose series, 48 h
The test system of experiment [1] is KM12 colon.
Experiment [2] deals with SK-OV-3 ovarian.
The test system of experiment [3] is NCI-H522 lung.
Experiment [4] concerns SF-295 CNS.
Experiment [5] relates to A549 NSCLC.
Experiment [6] has as its system SK-MEL-5 melanoma.
The test system of experiment [7] is SNB-75 CNS.
In experiment [8] the test system is MOLT-4 leukemia.
The subject of experiment [9] is OVCAR-8 ovarian.
Experiment [10] relates to OVCAR-3 ovarian.

SMILES strings stand for the structures.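 How tested: cells in 96-well plates exposed to compound for 48 hours at five concentrations. GI50 = concentration required for 50% inhibition of growth. TGI: total growth inhibition.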

As to `Cc1cccc(N=N/C(=N\NC(=O)c2cc(Cl)ccc2O)c2ccc(N(CCC#N)CCC#N)cc2C)c1`, the TGI in [1] was 87.7 µM; in experiment [2], greater than 100 µM; in [3], 72.6 µM; in experiment [4] it was greater than 100 µM; in [5], greater than 100 µM; in experiment [6], greater than 100 µM. Also, the TGI in [7] was greater than 100 µM; in experiment [8], 39.9 µM; in [9], greater than 100 µM; in experiment [10], 49.6 µM.

Consider `Cn1c(=O)c2c(=O)cc(N)[nH]c2n(C)c1=O`, for which the TGI in experiment [1], in [2], in experiment [3], in experiment [4], in [5] and in experiment [6] was greater than 100 µM each time. In addition, the TGI in experiment [7], in [8], in [9] and in experiment [10] was greater than 100 µM in each case.

In the case of `O=C1CN(c2ccccc2)C(=O)CN1NCNN1CC(=O)N(c2ccccc2)CC1=O`, the TGI in experiment [1], in experiment [2], in experiment [3], in experiment [4], in experiment [5] and in [6] was greater than 100 µM throughout. Moreover, the TGI in experiment [7], in experiment [8], in [9] and in experiment [10] was greater than 100 µM throughout.

As for `C/C(CCN(C)C)=N\OC(=O)c1ccccc1`, the TGI in [1], in experiment [2], in experiment [3], in experiment [4], in [5] and in experiment [6] was greater than 100 µM each time. Besides, the TGI in [7], in experiment [8], in experiment [9] and in [10] was greater than 100 µM each time.

Take `[O-][N+]1=C2CCC/C(=N/O)C2(O)C2CCCCC21N1CCOCC1` (stereo unspecified): the TGI in experiment [1], in experiment [2], in experiment [3], in [4], in experiment [5] and in [6] was greater than 100 µM each time. The TGI in [7], in experiment [8], in experiment [9] and in experiment [10] was greater than 100 µM in each case.

Take `NC(CSCSCC(N)C(=O)O)C(=O)O` (stereo unspecified): the TGI in experiment [1] was greater than 104 µM; in experiment [2], greater than 225 µM; in experiment [3], greater than 225 µM; in experiment [4], greater than 225 µM; in experiment [5] it was greater than 225 µM; in experiment [6], greater than 225 µM. In addition, the TGI in experiment [7] is greater than 225 µM; in experiment [8] it was greater than 225 µM; in experiment [9] it was greater than 22.5 µM; in [10], greater than 225 µM.

For `O=C1OC(c2ccccc2Br)=N/C1=C/c1ccccc1`, the TGI in experiment [1] is 34 µM; in experiment [2] it was greater than 100 µM; in experiment [3], 72.2 µM; in experiment [4], greater than 100 µM; in experiment [5] it was greater than 100 µM; in experiment [6], greater than 100 µM. Also, the TGI in [7] is greater than 100 µM; in experiment [8], greater than 100 µM; in experiment [9], 59.6 µM; in [10], 35.4 µM.

With `Cc1ccc(S(=O)(=O)Nn2c(S)c(C#N)c(-c3ccc(Cl)cc3)c(C#N)c2=O)cc1`, the TGI is 88.4 µM in experiment [1]; greater than 100 µM in experiment [2]; 37.4 µM in experiment [3]; greater than 100 µM in [4]; greater than 100 µM in experiment [5]; 42.2 µM in experiment [6]. For the same molecule, the TGI is greater than 100 µM in experiment [7], greater than 100 µM in experiment [8], 50.8 µM in experiment [9] and greater than 100 µM in experiment [10].

`COc1cccc(/C=N/[N-]C(N)=O)c1[O-].[Co+2].[OH3+].c1ccncc1`: the TGI in experiment [1], in experiment [2], in experiment [3], in [4], in experiment [5] and in [6] was greater than 100 µM in each case. Also, the TGI in [7], in [8], in [9] and in [10] was greater than 100 µM throughout.

Regarding `CCOC(=O)CC1Nc2ccccc2C12CCc1c([nH]c3ccccc13)C2C(=O)OCC` (stereo unspecified), the TGI in [1] is greater than 100 µM; in experiment [2] it was greater than 100 µM; in [3], greater than 100 µM; in experiment [4] it was 22.5 µM; in [5], greater than 100 µM; in experiment [6], greater than 100 µM. Further, the TGI in experiment [7] was 4.72 µM; in experiment [8], greater than 100 µM; in [9], greater than 100 µM; in [10] it was greater than 100 µM.

For `OC(Cc1cc(CC(O)(C(F)(F)F)C(F)(F)F)nc(CC(O)(C(F)(F)F)C(F)(F)F)c1)(C(F)(F)F)C(F)(F)F`, the TGI in experiment [1] was 2.42 µM; in experiment [2], greater than 10 µM; in experiment [3], 8.98 µM; in experiment [4], 2.58 µM; in experiment [5] it was 9.69 µM; in experiment [6], 2.84 µM. Further, the TGI in [7] was 7.81 µM; in experiment [8], greater than 10 µM; in [9], greater than 10 µM; in [10] it was 1.96 µM.

As for `CC(C)CC1N=C(OCc2ccccc2)OC1=O` (stereo unspecified), the TGI in [1], in experiment [2], in experiment [3], in experiment [4], in experiment [5] and in experiment [6] was greater than 100 µM each time. In addition, the TGI in experiment [7], in experiment [8], in experiment [9] and in [10] was greater than 100 µM in each case.

With `O=C(/C=C/c1cccc(Br)c1)N1CCN(CCOC(c2ccccc2)c2ccccc2)CC1`, the TGI is greater than 100 µM in experiment [1]; greater than 100 µM in experiment [2]; greater than 100 µM in [3]; greater than 100 µM in [4]; greater than 100 µM in experiment [5]; 30.7 µM in [6]. In addition, the TGI is greater than 100 µM in experiment [7], 30.8 µM in experiment [8], greater than 100 µM in experiment [9] and greater than 100 µM in experiment [10].

With `C[C@@H]1CC[C@@]2(C)[C@H](C)/C(=C\COC(=O)/C=C/c3ccc(O)c(O)c3)CC[C@@]12C`, the TGI in experiment [1] came to 15.9 µM; in experiment [2], 26.4 µM; in experiment [3], 3.12 µM; in experiment [4], 23.2 µM; in experiment [5], 35.8 µM; in experiment [6], 17 µM. Moreover, the TGI in [7] was determined as 28 µM; in experiment [8] it was 8.9 µM; in experiment [9], 24.1 µM; in experiment [10], 21.6 µM.

As for `N#C/C(=C\c1ccc[nH]1)C(=O)c1ccccc1`, the TGI in [1], in experiment [2], in experiment [3], in experiment [4], in experiment [5] and in experiment [6] was greater than 100 µM each time. Besides, the TGI in experiment [7], in experiment [8], in experiment [9] and in experiment [10] was greater than 100 µM each time.

For `CC(C)c1c(O[Si](C(C)C)(C(C)C)C(C)C)cc2c(c1O)CC[C@H]1C(C)(C)CCC[C@]21C`, the TGI in [1], in experiment [2], in experiment [3], in [4], in experiment [5] and in experiment [6] was greater than 100 µM throughout. The TGI in experiment [7], in experiment [8], in experiment [9] and in [10] was greater than 100 µM each time.

`c1ccc(/C(=N/Nc2ccccn2)c2cccnn2)cc1`: the TGI was greater than 100 µM in experiment [1]; greater than 47.6 µM in experiment [2]; 4.93 µM in experiment [3]; 29.7 µM in [4]; greater than 69.8 µM in experiment [5]; 52.3 µM in [6]. Also, the TGI is 32.7 µM in [7], 27.1 µM in experiment [8], 18.9 µM in experiment [9] and greater than 100 µM in experiment [10].

As to `CN(Cc1cnc2nc(N)nc(N)c2n1)c1ccc(C(=O)NCCCC(=O)O)cc1`, the TGI in experiment [1], in experiment [2], in experiment [3], in [4], in experiment [5] and in [6] was greater than 100 µM throughout. In addition, the TGI in experiment [7], in experiment [8], in experiment [9] and in [10] was greater than 100 µM each time.

Take `O=C(CCCn1ccnc1[N+](=O)[O-])NCCn1cnc([N+](=O)[O-])n1`: the TGI in experiment [1], in [2], in [3], in experiment [4], in experiment [5] and in experiment [6] was greater than 100 µM throughout. The TGI in [7], in [8], in experiment [9] and in experiment [10] was greater than 100 µM in each case.

For `C[C@]12CCc3nn(-c4ccccc4)nc3C1CC[C@@H]1C2CC[C@]2(C)C(=O)CCC12` (stereo partly specified), the TGI in [1], in experiment [2], in experiment [3], in experiment [4], in [5] and in [6] was greater than 100 µM in each case. The TGI in [7], in [8], in experiment [9] and in [10] was greater than 100 µM throughout.

On to `C#CCNC(=O)CC[C@@H](C)[C@H]1CC[C@H]2[C@@H]3CC[C@@H]4CC(=O)CC[C@]4(C)[C@H]3CC[C@]12C`, for which the GI50 was 18.8 µM in experiment [1]; 28.8 µM in experiment [2]; 3.69 µM in experiment [3]; 19.3 µM in experiment [4]; 17.4 µM in experiment [5]; 8.71 µM in experiment [6]. The GI50 in experiment [7] is 10.9 µM; in experiment [8], 10.3 µM; in [9] it was 6.06 µM; in experiment [10], 13.8 µM. Further, the TGI in experiment [1] is 70.2 µM; in experiment [2], greater than 100 µM; in experiment [3], 16.6 µM; in [4], 49.4 µM; in [5], greater than 100 µM; in experiment [6], 23.2 µM. Moreover, the TGI is 33.5 µM in experiment [7], 43.7 µM in [8], 32.8 µM in experiment [9] and 36.1 µM in experiment [10].

Consider `CN(C)NC1=NS(=O)(=O)c2cc3c(=O)n(C)[nH]c3cc2S1`, for which the TGI in [1], in [2], in experiment [3], in experiment [4], in experiment [5] and in experiment [6] was greater than 10 µM in each case. Also, the TGI in [7], in experiment [8], in experiment [9] and in experiment [10] was greater than 10 µM each time.

For `Cn1c(=O)n(C2(C)CSC2)c2ccccc21`, the TGI in experiment [1], in experiment [2], in experiment [3], in experiment [4], in experiment [5] and in experiment [6] was greater than 100 µM in each case. The TGI in [7], in [8] and in experiment [9] was greater than 100 µM each time.

With `CC1CCc2c(sc3ncnc(N/N=C/c4ccc(Cl)cc4)c23)C1` (stereo unspecified), the TGI was greater than 100 µM in experiment [2]; 65.1 µM in experiment [3]; 75.5 µM in experiment [4]; greater than 100 µM in experiment [5]; 37.2 µM in [6]; greater than 100 µM in [7]. Moreover, the values for the TGI in [8], in experiment [9] and in experiment [10] were 57.3 µM, greater than 100 µM and greater than 100 µM, respectively.

For the molecule `Cc1c(C#N)c2nc3ccccc3n2c(=O)/c1=C/Nc1ccc(Cl)cc1`, the TGI in experiment [1] is greater than 100 µM; in [2], 32.4 µM; in experiment [3], greater than 100 µM; in [4], 61.5 µM; in [5], greater than 100 µM; in experiment [6], greater than 100 µM. The TGI in [7] is 23.1 µM; in experiment [8] it was greater than 100 µM; in [9], greater than 100 µM.

As for `O=C(O)c1ccc(Nc2cnc3cc(C(F)(F)F)ccc3n2)cc1`, the TGI is greater than 100 µM in experiment [1]; 60.6 µM in experiment [3]; greater than 100 µM in experiment [4]; greater than 100 µM in experiment [5]; greater than 100 µM in experiment [6]; greater than 100 µM in experiment [7]. Also, the TGI in [8], in [9] and in [10] was greater than 100 µM throughout.
